Assay results: patent US11787809B2 (NIHON NOHYAKU CO., LTD., priority 2015, dated 2023)
Like-named read-outs stand apart in the source and are kept apart here.

Key:
Laodelphax striatella = test: Insecticidal test on Laodelphax striatella (rice seedling dip); type: in vivo; conditions: Laodelphax striatellus, 192 h, read-out: insecticidal effect (corrected mortality rate)
From the text: Insecticidal Test on Laodelphax striatella
The oxime group-containing condensed heterocyclic compounds represented by the general formula (1) of the present invention or salts thereof were separately dispersed in water and diluted to 500 ppm, and rice plant seedlings (variety: Nihonbare) were dipped in the agrochemical dispersions for 30 seconds. After air-dried, each seedling was put into a separate glass test tube and inoculated with ten 3rd-instar larvae of Laodelphax striatella, and then the glass test tubes were capped with cotton plugs. At 8 days after the inoculation, the numbers of surviving larvae and dead larvae were counted, the corrected mortality rate was calculated according to the formula shown below, and the insecticidal effect was evaluated according to the criteria of Test Example 1. Corrected mortality rate (%)=100×(Survival rate in a non-treatment plot−Survival rate in a treatment plot)/Survival rate in a non-treatment plot [Math. 2]

Plutella xylostella = test: Insecticidal test on Plutella xylostella (dip of Chinese cabbage seedlings with laid eggs); type: in vivo; conditions: 144 h
From the text: Insecticidal Test on Plutella xylostella
Adults of Plutella xylostella were released onto Chinese cabbage seedlings and allowed to lay eggs thereon. At 2 days after the release of the adults, the Chinese cabbage seedlings with laid eggs were dipped for about 30 seconds in agrochemical dispersions diluted to 500 ppm, each of which contained a different kind of oxime group-containing condensed heterocyclic compound represented by the general formula (1) of the present invention as an active ingredient. After air-dried, the seedlings were kept in a thermostatic chamber at 25° C. At 6 days after the dip treatment, the number of hatched larvae per plot was counted, the mortality rate was calculated according to the formula shown below, and the insecticidal effect was evaluated according to the criteria of Test Example 1. This test was conducted in triplicate using 10 adults of Plutella xylostella per plot. Corrected mortality rate (%)=100×(Number of hatched larvae in a non-treatment plot−Number of hatched larvae in a treatment plot)/Number of hatched larvae in a non-treatment plot [Math. 3]

[1] = 500 ppm, rice seedlings (Nihonbare) dipped 30 seconds, ten 3rd-instar larvae, 8 days after inoculation, criteria of Test Example 1
[2] = 500 ppm, Chinese cabbage seedlings with laid eggs dipped about 30 seconds, 25° C., 6 days after dip treatment, criteria of Test Example 1, read-out: insecticidal effect (corrected mortality rate, hatched larvae)

Structure (SMILES) | mortality at 500 ppm (Laodelphax striatella; [1]) | mortality at 500 ppm (Plutella xylostella; [2]) | mortality at 500 ppm (Laodelphax striatella; in Oryza sativa) | mortality at 500 ppm (Plutella xylostella; in Brassica rapa, read-out: insecticidal effect (corrected mortality rate, hatched larvae))
CCS(=O)(=O)c1cc(C=NO)cnc1-c1nc2cc(C(F)(F)F)cnc2n1C [Compound 2-3] | 100% | 100% |  | 
CCS(=O)(=O)c1cc(C=NOCC(F)(F)F)cnc1-c1nc2cc(C(F)(F)F)cnc2n1C [Compound 2-33] | 100% | 100% |  | 
CCS(=O)(=O)c1ccc(C=NO)nc1-c1nc2cc(C(F)(F)F)nnc2n1C [Compound 3-1] |  |  | 100% | 100%
CCS(=O)(=O)c1ccc(C=NOCC(F)(F)F)nc1-c1nc2cc(C(F)(F)F)nnc2n1C [Compound 3-2] | 100% | 100% |  | 
CCS(=O)(=O)c1cc(/C=N/O)cnc1-c1nc2cc(SC(F)(F)F)ccc2o1 [Compound 4-11] | 100% | 100% |  | 
CCS(=O)(=O)c1cc(/C=N/OCC(F)(F)F)cnc1-c1nc2cc(SC(F)(F)F)ccc2o1 [Compound 4-12] | 100% | 100% |  | 
